The values below come from patent US10889579B2, “Thiazine derivatives as β-secretase inhibitors and methods of use” (AMGEN INC., priority 2016, dated 2021).

The structures appear in SMILES notation.

In data set [1] the target is T1, BACE1 (Homo sapiens (Human), UniProt P56817). The data set is described as follows: In vitro BACE1 cell-based assay (Aβ40 in conditioned medium, HTRF). The conditions noted are these: Aβ40 in conditioned medium of cells stably expressing APP, 24 h. The method, then:
In Vitro BACE1 Cell-Based Assay
The cell-based assay measures inhibition or reduction of Aβ40 in conditioned medium of test compound treated cells expressing amyloid precursor protein. Cells stably expressing Amyloid Precursor Protein (APP) were plated at a density of 45K cells/well in 384 well plates (Corning/BioCoat 354663). The test compounds were then added to cells in 22-point dose response concentrations with the starting concentration being 62.5 μM. The compounds were diluted from stock solutions in DMSO and the final DMSO concentration of the test compounds on cells was 0.625%. The cells were cultivated overnight at 37° C. and 5% CO2 in DMEM supplemented with 10% FBS. After 24 h of incubation with the test compounds, the conditioned media was collected and the Aβ40 levels were determined using HTRF (Homogeneous Time Resolved Fluorescence). The IC50 of the compound was calculated from the percent of control or percent inhibition of Aβ 40 as a function of the concentration of the test compound.
The HTRF to detect Aβ40 was performed in 384 well plates (Costar 3658). The antibody pair that were used to detect Aβ 40 from cell supernatants were ConfAb40 antibody (Amgen in-house) and biotinylated 6E10 (BIOLEGEND). As an alternative to ConfAb40, a commercially available antibody, Anti-beta Amyloid 1-40 antibody [BDI350] from Abcam, Cambridge, Mass. 02139-1517 (Product code: ab20068), may be used in this assay. The concentrations were 0.35 μg/mL of ConfAb40 antibody and 1.33 μg/mL of 6E10-biotinylated antibody, as well as 4.5 μg/mL of Streptavidin Allophycocyanin Conjugate (ThermoFisher Scientific) in HTRF Buffer (1M Hepes pH 7.5, 1M NaCL, 1% BSA, 0.5% Tween 20).
The conditioned media was incubated with above antibodies and Streptavidin Allophycocyanin Conjugate for 30-60 minutes at 23° C. The final readout was performed on Envision from PerkinElmer.
On the technique in general: In TR-FRET formats the signal depends on donor and acceptor labels being close together.
Target sequence in this assay (P56817 46-501, species assumed): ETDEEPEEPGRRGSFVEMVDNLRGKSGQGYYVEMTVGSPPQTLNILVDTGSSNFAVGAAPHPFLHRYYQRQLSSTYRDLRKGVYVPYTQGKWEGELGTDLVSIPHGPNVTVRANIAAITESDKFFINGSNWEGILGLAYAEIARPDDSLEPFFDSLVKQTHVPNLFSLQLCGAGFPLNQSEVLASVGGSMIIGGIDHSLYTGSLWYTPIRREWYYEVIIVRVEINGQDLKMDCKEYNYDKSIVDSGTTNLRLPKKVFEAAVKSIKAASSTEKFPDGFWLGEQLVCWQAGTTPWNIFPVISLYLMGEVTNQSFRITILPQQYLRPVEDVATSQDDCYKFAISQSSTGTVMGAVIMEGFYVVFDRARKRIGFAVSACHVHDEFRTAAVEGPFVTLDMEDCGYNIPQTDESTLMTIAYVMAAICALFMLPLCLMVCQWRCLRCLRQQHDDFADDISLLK

For data set [2], the target named is Recombinant CatD (Homo sapiens (Human), UniProt P07339). Briefly: In vitro enzymatic Cathepsin D (CatD) FRET assay. The conditions noted are these: pH 3.5, 1 h pre-incubation, read-out: Cat D Enzyme IC50. Format: biochemical. The method, then: In Vitro Enzymatic Cathepsin D (CatD) FRET Assay Recombinant CatD was expressed in CHO cells. The assay buffer for CatD was 0.05 M citrate pH 3.5, 10% DMSO final, 5 mM CHAPS. The CatD enzyme (9 nM) was pre-incubated for one hour with inhibitors, typically in about luL of DMSO according to a serial dilution, is added thereto. The assays was effectively started by the addition of different FRET substrates (20 nM for CatD) and the combination was incubated for one hour. The FRET assay was terminated with by addition of tris buffer, which raises the pH to neutrality, and the fluorescence was determined. The FRET substrate was a peptide with commercially available fluorophore and quencher, on opposite sides of the CatD cleavage site. The CatD substrate peptide sequence was based on sequence #1 of Table 1 from Gulnik et al., FEBS Lett. 413(2):379-384 (1997). Proteolytic cleavage of the FRET substrate released quenching of fluorescence (CatD excitation 500 nm and emission 580 nm). The in vitro CatD FRET assay data for each of the Examples is provided in Table 2, conducted by the first procedure described above. […] Thus, with this surprising selectivity profile, the compounds provided herein are believed to minimize, reduce or completely eliminate any risk of retinal atrophy and abnormal development of the eye and of the retinal pigmented epithelium as it relates to the normal function and activity of CatD.

Data set [3] deals with human recombinant BACE2 (Homo sapiens (Human), UniProt Q9Y5Z0). The data set is described as follows: In vitro enzymatic BACE2 FRET assay. Format: biochemical. The conditions noted are these: pH 4.5, 1 h pre-incubation, read-out: BACE2 Enzyme IC50. As to the method:
(§1) In Vitro Enzymatic BACE1 and BACE2 FRET (Fluorescence Resonance Energy Transfer) Assays
(§2) The cDNAs for both human recombinant BACE1 and 2 with C-terminal 6-His Tags were cloned into transient protein expression vectors, which were subsequently transfected into mammalian cell lines. These recombinant proteins were further purified using Ni-NTA affinity chromatography (Qiagen). The assay buffer used in these screens was 0.05 M acetate, pH 4.5, 8% DMSO final, 100 μM genapol (which is a nonionic detergent, below its Critical Micelle Concentration). The β-secretase enzyme (0.02 nM for BACE1 and 0.64 nM for BACE2), which was pre-incubated for one hour with the test compound, typically in about luL of DMSO according to a serial dilution, was added thereto. The assay was effectively started by the addition of FRET substrate (50 nM) and the combination was incubated for one hour. The FRET assay was terminated by the addition of tris buffer, which raised the pH to neutrality, and the fluorescence was determined. The FRET substrate was a peptide with commercially available fluorophore and quencher, on opposite sides of the BACE cleavage site. The specific FRET substrate used in this assay was made by Amgen in-house. Commercially available FRET substrates, for example, the FRET substrate offered with the BACE1 FRET Assay Kit sold by ThermoFisher Scientific (Catalog Number P2985), may be used in this assay with the appropriate modifications, which are within the purview of the ability of a person with ordinary skill in the art. Proteolytic cleavage of the FRET substrate released quenching of fluorescence (excitation 488 nm and emission 590 nm).

Data set [4] deals with T1, BACE1. The data set is described as follows: In vitro enzymatic BACE1 FRET assay. Format: biochemical. The conditions noted are these: pH 4.5, 1 h pre-incubation, read-out: BACE1 Enzyme IC50. The method, then:
as §1, §2
Target sequence in this assay (P56817 46-501): as the sequence (P56817 46-501, species assumed) above

The subject of data set [5] is Aβ peptide levels in the CSF and plasma. The conditions noted are these: nonhuman primates; cited from earlier work.
For data set [6] the following is noted: repeated doses up to 200 mg, phase I clinical trial; cited from earlier work.
For data set [7] the following is noted: in vivo; cited from earlier work.
Data set [8] relates to Aβ peptide in CSF. The conditions noted are these: cited from earlier work.
The subject of data set [9] is pigment epithelium of the rat's eye. The conditions noted are these: higher compound dose given for three months; cited from earlier work.
Data set [10] concerns CSF Aβ peptide concentrations. The conditions noted are these: sustained and dose-dependent manner; cited from earlier work.
The conditions of data set [11]: phase I clinical trials; cited from earlier work.

human recombinant BACE2, sequence (Q9Y5Z0 63-518): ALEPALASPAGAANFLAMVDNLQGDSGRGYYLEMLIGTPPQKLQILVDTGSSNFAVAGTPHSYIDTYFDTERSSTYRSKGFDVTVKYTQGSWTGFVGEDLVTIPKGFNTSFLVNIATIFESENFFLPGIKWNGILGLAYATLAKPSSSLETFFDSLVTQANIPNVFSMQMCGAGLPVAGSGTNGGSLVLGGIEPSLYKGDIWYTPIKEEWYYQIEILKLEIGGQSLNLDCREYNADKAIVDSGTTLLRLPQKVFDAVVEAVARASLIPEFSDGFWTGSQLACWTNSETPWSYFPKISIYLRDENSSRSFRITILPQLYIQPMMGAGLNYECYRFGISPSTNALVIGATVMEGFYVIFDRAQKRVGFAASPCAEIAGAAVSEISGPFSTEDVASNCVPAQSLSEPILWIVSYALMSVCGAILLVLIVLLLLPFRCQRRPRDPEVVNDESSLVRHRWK
Recombinant CatD, sequence (P07339 65-412): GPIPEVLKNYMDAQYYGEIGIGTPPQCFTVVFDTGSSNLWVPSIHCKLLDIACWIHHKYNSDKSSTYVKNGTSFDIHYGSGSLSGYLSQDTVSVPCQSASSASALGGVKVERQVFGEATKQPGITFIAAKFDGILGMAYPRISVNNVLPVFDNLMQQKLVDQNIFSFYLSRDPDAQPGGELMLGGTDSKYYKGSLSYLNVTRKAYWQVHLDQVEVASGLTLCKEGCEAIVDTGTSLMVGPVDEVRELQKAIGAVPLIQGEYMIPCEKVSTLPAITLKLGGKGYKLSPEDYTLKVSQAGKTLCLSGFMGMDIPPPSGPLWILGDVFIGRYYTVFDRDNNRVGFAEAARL

Regarding `C#CCOc1cnc(/C(F)=C/c2ccc(F)c([C@]3(C)C[C@@](C)(C(=O)N4CCOCC4)SC(N)=N3)c2)cn1` [Example 114, ((4S,6S)-2-amino-4-(2-fluoro-5-((Z)-2-fluoro-2-(5-(prop-2-yn-1-yloxy)pyrazin-2-yl)vinyl)phenyl)-4,6-dimethyl-5,6-dihydro-4H-1,3-thiazin-6-yl)(morpholino)methanone], the IC50 in data set [1] came to 2 nM; in data set [2], 21800 nM; in data set [3], 358 nM; in data set [4], 6 nM.

As to `C#CCOc1cnc(/C(F)=C/c2ccc(F)c([C@]3(C)C[C@@](C)(C(=O)NCC(F)F)SC(N)=N3)c2)cn1` [Example 115, (4S,6S)-2-amino-N-(2,2-difluoroethyl)-4-(2-fluoro-5-((Z)-2-fluoro-2-(5-(prop-2-yn-1-yloxy)pyrazin-2-yl)vinyl)phenyl)-4,6-dimethyl-5,6-dihydro-4H-1,3-thiazine-6-carboxamide], the concentration for half-maximal inhibition (IC50) in data set [1] was determined as 18 nM; in [2], 40200 nM; in data set [3] it was 760 nM; in data set [4], 24 nM.

For `CNC(=O)[C@]1(C)C[C@@](C)(c2cc(/C=C(\F)c3ccc(C#N)cn3)ccc2F)N=C(N)S1` [Example 116, (4S,6S)-2-amino-4-(5-((Z)-2-(5-cyanopyridin-2-yl)-2-fluorovinyl)-2-fluorophenyl)-N,4,6-trimethyl-5,6-dihydro-4H-1,3-thiazine-6-carboxamide], the IC50 in data set [1] came out at 10 nM; in data set [2] it was 68600 nM; in data set [3], 560 nM; in data set [4] it was 25 nM.

For `C[C@H]1OC[C@]2(c3cc(NC(=O)c4cnc(C(F)F)cn4)ccc3F)N=C(N)SC[C@H]12` [Example E2609], in [5], the “reduction in Aβ peptide levels in the CSF and plasma” value is recorded as “significant reduction”. The clinical safety result in data set [6] is “did not show clinical significant safety concerns”.

`C[C@@]1(c2cc(NC(=O)c3ccc(C#N)cn3)ccc2F)C=CSC(N)=N1` [JNJ-54861911]: the “ability to cross the blood-brain barrier” value in data set [7] was “demonstrated an ability to cross the blood-brain barrier”. Besides, in data set [8] (in vivo), the “reduction of Aβ peptide concentrations” value is given as “dose-dependently reduce Aβ peptide concentrations”. The “Aβ peptide reduction in CSF” value in data set [8] (oral dose of 95 mg once daily) was “up to 95%”.

For `C[C@@]1(c2cc(-c3cncnc3)c(F)cc2F)CCSC(N)=N1` [LY 2811376], the eye toxicity finding entry in data set [9] is reported as “damaged the pigment epithelium of the rat's eye”.

On to `CN1C(=N)N[C@](C)(c2cc(NC(=O)c3ccc(F)cn3)ccc2F)CS1(=O)=O` [MK-8931], for which the “CSF Aβ peptide concentrations” value in data set [10] is given as “significantly reduced”. For the same molecule, the safety profile entry in data set [11] is given as “excellent safety profile with no immediately noticeable side effects”.

A word on the IC50: it is the point on the concentration scale where inhibition reaches its midpoint.
